Test results as given in article PMC8587750, “Structural Optimization and Biological Activity of Pyrazole Derivatives: Virtual Computational Analysis, Recovery Assay and 3D Culture Model as Potential Predictive Tools of Effectiveness against Trypanosoma cruzi” (Molecules, 2021).

System: T. cruzi cysteine protease
Assay: Cysteine protease activity of trypomastigote total protein extracts (Z-FR-AMC)
Format: biochemical, Trypanosoma cruzi
Settings: concentrations ≥ 11.11 µM
Method: Total protein extract from trypomastigotes (Dm28c-Luc; 10^8 parasites/mL) were extracted with lysis buffer. Cysteine protease activity of extracts (5 μg) was measured in acetate buffer using fluorogenic peptide substrate (60 μM of 7-Amino-4-Methylcoumarin hydrochloride, CBZ-L-Phenylalanyl-L-Arginine amide (Z-FR-AMC). Total protein extracts were incubated for 45 min at room temperature with the compounds and changes in relative fluorescence units monitored using a SpectraMaxM2e spectrophotometer (Molecular Devices, Sunnyvale, CA, USA) for 1 h with excitation at 370 nm and emission at 460 nm. The inhibition assays were performed by coincubation with different compounds (3g, 3j, and 3m) and concentrations (300–11.11 µM) and transepoxysuccinyl-L-leucylamido-(4-guanidino) butane (E-64). Additional control was carried out with DMSO (≤1%). Enzymatic activity was expressed in µmol/min/mg of protein and the residual activity in percentage.
Figure 6 Inhibition of T. cruzi cysteine protease activity. Total protein extracts of trypomastigotes (5 µg), was incubated at different concentrations (300–11.11 µM) of compounds E64 (black circle), 3g (black triangle), 3j (black square) and 3m (white circle) in enzyme activation buffer pH 5.0, at 37 °C. Enzyme activity was measured using a specific fluorogenic peptide substrate Z-FR-AMC (60 µM). Results are presented as percentage of inhibition of enzyme activity (%) and represent the mean and standard deviation (±) of three independent experiments.

Structure (SMILES): CC(C)C[C@H](NC(=O)[C@H]1O[C@@H]1C(=O)O)C(=O)NCCCCN=C(N)N [Compound E-64, transepoxysuccinyl-L-leucylamido-(4-guanidino) butane, reference compound]
- inhibition of cysteine protease enzymatic activity: greater than 80%
